Measured values reported in patent US20220273607A1, “METHODS OF USING MODIFIED […] TREAT CANCER” (NORTHWESTERN UNIVERSITY, priority 2019, published 2022).

Assays:
Assay type in all cases: cell-based
HT-1080 cells = experiment: CellTiter Blue cytotoxicity with and without CD36 blocker SSO, HT-1080; conditions: different compound concentrations and different concentrations of SSO, FIG. 3
Description: The compound of Example 2 (ODDA-PTX) was compared with paclitaxel (PTX) in terms of cellular uptake. The comparison was carried out in HT-1080 cell culture using sulfosuccinimidyl oleate (SSO), a chemical blocker of fatty acid translocase/CD36:
Cytotoxicity of the compounds was evaluated using the CellTiter Blue (CTB) assay (Promega, cat G8081). Treatments of fatty acid-conjugates were prepared as 1000× serial stock dilutions in DMSO, then diluted into media for 1×, 0.1% DMSO treatment solutions. […]
Expression of CD36 in HT-1080 was validated using flow cytometry and a fluorophore-conjugated CD36 antibody (CD36, eFluor 660, clone: eBioNL07 (NL07), eBioscience). […] Cells were resuspended in a final volume of 100 μL resuspension and analyzed via flow cytometry for presence of CD36. […]
HT-1080 cells were plated in 96-well plates one day before treatment, at a seeding density of 10,000 cells/well. […] Fluorescence was measured at 590 nm with excitation at 560 nm using a Perkin Elmer EnSpire plate reader. Average background fluorescence readings of the experimental wells (three wells per treatment concentration). Viability was calculated as the average background-subtracted signal in a well compared to that of a negative control (cells treated with vehicle, […] in media). […]

MCF-7 cells = experiment: CellTiter Blue cytotoxicity with and without CD36 blocker SSO, MCF-7; conditions: different compound concentrations and different concentrations of SSO, FIG. 4
HepG2 cells = experiment: CellTiter Blue cytotoxicity with and without CD36 blocker SSO, HepG2; conditions: different compound concentrations and different concentrations of SSO, FIG. 5

## CC(=O)O[C@H]1C(=O)[C@@]2(C)[C@H]([C@H](OC(=O)c3ccccc3)[C@]3(O)C[C@H](OC(=O)[C@H](OC(=O)CCCCCCCCCCCCCCCCC(=O)O)[C@@H](NC(=O)c4ccccc4)c4ccccc4)C(C)=C1C3(C)C)[C@]1(OC(C)=O)CO[C@@H]1C[C@@H]2O [ODDA-PTX, Paclitaxel-C18 Diacid Conjugate]
HT-1080 cells
  change of percent viability of the cells with increasing concentration of the CD36 inhibitor: increasing the concentration of the CD36 inhibitor correlates with increasing percent viability
MCF-7 cells
  change of percent viability of the cells with increasing concentration of the CD36 inhibitor: increasing the concentration of the CD36 inhibitor correlates with increasing percent viability
HepG2 cells
  change of percent viability of the cells with increasing concentration of the CD36 inhibitor: increasing the concentration of the CD36 inhibitor correlates with increasing percent viability
